In patent US11926645B2, “Compounds and methods for treatment of viral infections” (priority 2020, dated 2024) one finds EC50 and CC50 data, which are given here for 20 molecules.

Read-outs that look alike come from different tables or passages of the source. Some results are limits rather than exact numbers.

Type in all cases: cell-based
Series [1] has as its system RSV-Fluc (Respiratory Syncytial virus strain A2 containing the firefly luciferase reporter). As to the kind of experiment: microbe, parasite or virus in culture. As to conditions: human respiratory syncytial virus, 72 h, NHBE cells, three days.
A further series deals with RSV strain A2. As to the kind of experiment: RSV antiviral assay (Hep2), EC50-Hep2/B1-384. Conditions: human respiratory syncytial virus, HEp-2, 96 h; Hep2 cells, 4 days, Cell-Titer Glo.
The next series in a line: in vitro. Conditions: human. The procedure:
The cytotoxicity of compounds was determined in A549-hACE2 cells in the following manner. Compounds (200 nL) were spotted onto 384-well Grenier plates prior to seeding 5000 A549-hACE2 cells/well in a volume of 40 μL culture medium. The plates were incubated at 37° C. for 48 hours with 5% CO2. On day 2, 40 μL of CellTiter-Glo (Promega) was added and mixed 5 times.

In a further series the test system is SARS-CoV-2-Nluc viruses. The series is described as follows: microbe, parasite or virus in culture.
The mark [2] stands for this setting: Severe acute respiratory syndrome coronavirus 2, 48 h; read-out: SARS-CoV2 EC50.
[3] abbreviates: Severe acute respiratory syndrome coronavirus 2, 48 h, read-out: SARS-CoV2 EC50.

Broadly, the EC50 is the midpoint of the concentration-response curve. By CC50 is commonly meant the concentration giving 50% cytotoxicity.

Consider `CC(=O)OC[C@H]1O[C@@](C#N)(c2ccc3c(N)ncnn23)[C@H](OC(C)=O)[C@@H]1OC(C)=O` [Compound 2, (2R,3R,4R,5R)-5-(acetoxymethyl)-2-(4-aminopyrrolo[2,1-f][1,2,4]triazin-7-yl)-2-cyanotetrahydrofuran-3,4-diyl diacetate], for which the EC50 in series [1] is 287 nM; with RSV strain A2, 537 nM; in the series on SARS-CoV-2-Nluc viruses (setting [2]) it was 1900 nM. In “in vitro”, the CC50 at 48 h is more than 50000 nM.
On the same counts, the results for `CCC(=O)OC[C@H]1O[C@@](C#N)(c2ccc3c(N)ncnn23)[C@H](OC(=O)CC)[C@@H]1OC(=O)CC` [Compound 3, (2R,3R,4R,5R)-2-(4-aminopyrrolo[2,1-f][1,2,4]triazin-7-yl)-2-cyano-5-((propionyloxy)methyl)tetrahydrofuran-3,4-diyl dipropionate] are 831 nM, 425 nM, 3100 nM and more than 100000 nM.
On to `N#C[C@@]1(c2ccc3c(N)ncnn23)O[C@H](CO)[C@H]2OC(c3ccccc3)O[C@H]21` (stereo partly drawn) [Compound 4, (3aR,4R,6R,6aR)-4-(4-aminopyrrolo[2,1-f][1,2,4]triazin-7-yl)-6-(hydroxymethyl)-2-phenyltetrahydrofuro[3,4-d][1,3]dioxole-4-carbonitrile], for which the EC50 in the series on RSV strain A2 is 26300 nM; in the series with SARS-CoV-2-Nluc viruses (setting [2]), more than 10000 nM. The molecule also yielded a CC50 at 48 h in “in vitro” of more than 100000 nM.
On the same counts, the results for `CC(C)C(=O)OC[C@H]1O[C@@](C#N)(c2ccc3c(N)ncnn23)[C@@H]2OC(c3ccccc3)O[C@@H]21` (stereo partly drawn) [Compound 5, ((3aR,4R,6R,6aR)-6-(4-aminopyrrolo[2,1-f][1,2,4]triazin-7-yl)-6-cyano-2-phenyltetrahydrofuro[3,4-d][1,3]dioxol-4-yl)methyl isobutyrate] are 13100 nM, more than 10000 nM and more than 100000 nM.
For `CC(C)[C@H](N)C(=O)OC[C@H]1O[C@@](C#N)(c2ccc3c(N)ncnn23)[C@@H]2OC(c3ccccc3)O[C@@H]21` (stereo partly drawn) [Compound 6, ((3aR,4R,6R,6aR)-6-(4-aminopyrrolo[2,1-f][1,2,4]triazin-7-yl)-6-cyano-2-phenyltetrahydrofuro[3,4-d][1,3]dioxol-4-yl)methyl L-valinate], in that order: 23600 nM, more than 10000 nM and more than 71200 nM.
For `CC(C)(N)C(=O)OC[C@H]1O[C@@](C#N)(c2ccc3c(N)ncnn23)[C@H](O)[C@@H]1O` [Compound 7, ((2R,3S,4R,5R)-5-(4-aminopyrrolo[2,1-f][1,2,4]triazin-7-yl)-5-cyano-3,4-dihydroxytetrahydrofuran-2-yl)methyl 2-amino-2-methylpropanoate], in that order: 859 nM, 3100 nM and more than 50000 nM.
Regarding `CC(C)[C@H](N)C(=O)OC[C@H]1O[C@@](C#N)(c2ccc3c(N)ncnn23)[C@H](O)[C@@H]1O` [Compound 8, ((2R,3S,4R,5R)-5-(4-aminopyrrolo[2,1-f][1,2,4]triazin-7-yl)-5-cyano-3,4-dihydroxytetrahydrofuran-2-yl)methyl L-valinate], the EC50 in series [1] was more than 5000 nM; in the series with RSV strain A2, 904 nM; with SARS-CoV-2-Nluc viruses (setting [2]) it was 2700 nM. In the series “in vitro”, this molecule yielded a CC50 at 48 h of more than 100000 nM.
On to `CC(C)[C@@H](N)C(=O)OC[C@H]1O[C@@](C#N)(c2ccc3c(N)ncnn23)[C@H](O)[C@@H]1O` [Compound 9, ((2R,3S,4R,5R)-5-(4-aminopyrrolo[2,1-f][1,2,4]triazin-7-yl)-5-cyano-3,4-dihydroxytetrahydrofuran-2-yl)methyl D-valinate], for which the EC50 was determined as 798 nM in the series on RSV strain A2 and 2400 nM with SARS-CoV-2-Nluc viruses (setting [2]). The CC50 at 48 h in the series “in vitro” was more than 50000 nM.
On the same counts, the results for `N#C[C@@]1(c2ccc3c(N)ncnn23)O[C@H](COC(=O)[C@@H](N)Cc2ccccc2)[C@@H](O)[C@H]1O` [Compound 10, ((2R,3S,4R,5R)-5-(4-aminopyrrolo[2,1-f][1,2,4]triazin-7-yl)-5-cyano-3,4-dihydroxytetrahydrofuran-2-yl)methyl L-phenylalaninate] are 1200 nM, 2200 nM and more than 100000 nM.
`CC(C)C(=O)O[C@H]1[C@@H](OC(=O)C(C)C)[C@](C#N)(c2ccc3c(N)ncnn23)O[C@@H]1COC(=O)C(C)(C)N` [Compound 11, (2R,3R,4R,5R)-5-(((2-amino-2-methylpropanoyl)oxy)methyl)-2-(4-aminopyrrolo[2,1-f][1,2,4]triazin-7-yl)-2-cyanotetrahydrofuran-3,4-diyl bis(2-methylpropanoate)]: the EC50 is 301 nM in series [1], 387 nM with RSV strain A2 and 2600 nM in the series with SARS-CoV-2-Nluc viruses (setting [2]). The same molecule displayed a CC50 at 48 h in “in vitro” of more than 100000 nM.
As to `CC(C)C(=O)O[C@H]1[C@@H](OC(=O)C(C)C)[C@](C#N)(c2ccc3c(N)ncnn23)O[C@@H]1COC(=O)[C@@H](N)C(C)C` [Compound 12, (2R,3R,4R,5R)-5-(((L-valyl)oxy)methyl)-2-(4-aminopyrrolo[2,1-f][1,2,4]triazin-7-yl)-2-cyanotetrahydrofuran-3,4-diylbis(2-methylpropanoate)], the results for the EC50 (in series [1]; in the series on RSV strain A2; with SARS-CoV-2-Nluc viruses (setting [2])) were 169 nM, 420 nM and 3300 nM, respectively. In “in vitro”, this molecule returned a CC50 at 48 h of more than 50000 nM.
For the molecule `N#C[C@@]1(c2ccc3c(N)ncnn23)O[C@H](CO)[C@H]2OC(=O)O[C@H]21` [Compound 13, (3aR,4R,6R,6aR)-4-(4-aminopyrrolo[2,1-f][1,2,4]triazin-7-yl)-6-(hydroxymethyl)-2-oxotetrahydrofuro[3,4-d][1,3]dioxole-4-carbonitrile], the EC50 in the series with RSV strain A2 amounted to 506 nM; in the series with SARS-CoV-2-Nluc viruses (setting [2]), 1300 nM. The molecule also showed a CC50 at 48 h in the series “in vitro” of more than 50000 nM.
For `N#C[C@@]1(c2ccc3c(N)ncnn23)O[C@H](COC(=O)C[C@@H](N)Cc2ccccc2)[C@@H](O)[C@H]1O` [Compound 14, ((2R,3S,4R,5R)-5-(4-aminopyrrolo[2,1-f][1,2,4]triazin-7-yl)-5-cyano-3,4-dihydroxytetrahydrofuran-2-yl)methyl (S)-3-amino-4-phenylbutanoate], in that order: 825 nM, 2700 nM and more than 50000 nM.
Regarding `CC(C)CC(=O)OC[C@H]1O[C@@](C#N)(c2ccc3c(N)ncnn23)[C@H](O)[C@@H]1O` [Compound 16, ((2R,3S,4R,5R)-5-(4-aminopyrrolo[2,1-f][1,2,4]triazin-7-yl)-5-cyano-3,4-dihydroxytetrahydrofuran-2-yl)methyl 3-methylbutanoate], the EC50 in series [1] was found to be 575 nM; in the series with RSV strain A2, 216 nM; in the series on SARS-CoV-2-Nluc viruses (setting [3]) it was 1220 nM. Also, the CC50 at 48 h in “in vitro” was more than 10000 nM.
For `N#C[C@@]1(c2ccc3c(N)ncnn23)O[C@H](COC(=O)C2CCCCC2)[C@@H](O)[C@H]1O` [Compound 17, ((2R,3S,4R,5R)-5-(4-aminopyrrolo[2,1-f][1,2,4]triazin-7-yl)-5-cyano-3,4-dihydroxytetrahydrofuran-2-yl)methyl cyclohexanecarboxylate], the EC50 in series [1] worked out at 1180 nM; in the series on RSV strain A2, 213 nM; in the series with SARS-CoV-2-Nluc viruses (setting [2]), 790 nM. This molecule came in with a CC50 at 48 h in “in vitro” of more than 10000 nM.
Turning to `CCCC(CCC)C(=O)OC[C@H]1O[C@@](C#N)(c2ccc3c(N)ncnn23)[C@H](O)[C@@H]1O` [Compound 18, ((2R,3S,4R,5R)-5-(4-aminopyrrolo[2,1-f][1,2,4]triazin-7-yl)-5-cyano-3,4-dihydroxytetrahydrofuran-2-yl)methyl 2-propylpentanoate], the EC50 in series [1] worked out at 224 nM; with RSV strain A2, 172 nM; with SARS-CoV-2-Nluc viruses (setting [3]), 940 nM. In the series “in vitro”, this molecule had a CC50 at 48 h of more than 10000 nM.
Take `CCC(CC)C(=O)OC[C@H]1O[C@@](C#N)(c2ccc3c(N)ncnn23)[C@H](O)[C@@H]1O` [Compound 19, ((2R,3S,4R,5R)-5-(4-aminopyrrolo[2,1-f][1,2,4]triazin-7-yl)-5-cyano-3,4-dihydroxytetrahydrofuran-2-yl)methyl 2-ethylbutanoate]: the EC50 in series [1] is 261 nM; in the series with RSV strain A2, 238 nM; in the series on SARS-CoV-2-Nluc viruses (setting [2]) it was 1450 nM. In “in vitro”, this molecule yielded a CC50 at 48 h of more than 10000 nM.
On the same counts, the results for `CCCCCCCC(=O)OC[C@H]1O[C@@](C#N)(c2ccc3c(N)ncnn23)[C@H](O)[C@@H]1O` [Compound 20, ((2R,3S,4R,5R)-5-(4-aminopyrrolo[2,1-f][1,2,4]triazin-7-yl)-5-cyano-3,4-dihydroxytetrahydrofuran-2-yl)methyl octanoate] are 841 nM, 272 nM, 610 nM and more than 10000 nM.
For `CC(C)(C)CC(=O)OC[C@H]1O[C@@](C#N)(c2ccc3c(N)ncnn23)[C@H](O)[C@@H]1O` [Compound 21, ((2R,3S,4R,5R)-5-(4-aminopyrrolo[2,1-f][1,2,4]triazin-7-yl)-5-cyano-3,4-dihydroxytetrahydrofuran-2-yl)methyl 3,3-dimethylbutanoate], in that order: 1850 nM, 2280 nM, 11400 nM and more than 10000 nM.
On to `N#C[C@@]1(c2ccc3c(N)ncnn23)O[C@H](COC(=O)Cc2ccccc2)[C@@H](O)[C@H]1O` [Compound 22, ((2R,3S,4R,5R)-5-(4-aminopyrrolo[2,1-f][1,2,4]triazin-7-yl)-5-cyano-3,4-dihydroxytetrahydrofuran-2-yl)methyl 2-phenylacetate], for which the figures for the EC50 (in series [1]; in the series with RSV strain A2; in the series with SARS-CoV-2-Nluc viruses (setting [2])) were 790 nM, 218 nM and 850 nM, respectively. Moreover, the CC50 in “in vitro” (48 hours, CellTiter-Glo, read-out: A549-hACE2 CC50) is more than 10000 nM.
